From PMC3274548, “Toward New Therapeutics for Skin and Soft Tissue Infections: Propargyl-Linked Antifolates Are Potent Inhibitors of MRSA and Streptococcus pyogenes” (PLoS ONE, 2012)
≈ marks a conversion by molar mass, not a printed value. Read-outs that look alike come from different tables or passages of the source.

How the values were obtained:
[1] = molecular target: T1, S. aureus DHFR (Staphylococcus aureus, UniProt P0A017); assay: biochemical; format: biochemical; details: for Selectivity (h/Sa): IC50 (human)/IC50 (pathogen)
T1 construct: the DHFR gene was inserted into vector pET41 with a His8 tag for purification; His8; made in house; host or cells: E. coli BL21 (DE3)
Description: (§1) S. aureus DHFR was cloned, expressed and purified as previously described. Briefly, the DHFR gene was inserted into vector pET41 with a His8 tag for purification. The protein was expressed in E. coli BL21 (DE3) cells. […] The protein was concentrated to ∼5 mg/mL. S. pyogenes DHFR was cloned using PCR from genomic DNA and inserted in vector pET-41.
(§2) Enzyme inhibition assays were performed by monitoring the rate of NADPH oxidation by the DHFR enzyme at an absorbance of 340 nm over five minutes. Assays were performed in the presence of saturating concentrations of NADPH (100 µM) and initiated with dihydrofolate (1 mM). All assays were completed at 25°C in a buffer containing 20 mM TES pH 7.0, 50 mM KCl, 10 mM 2-mercaptoethanol, 0.5 mM EDTA and 1 mg/mL BSA. Inhibition was measured at least three times with inhibitor concentrations near the IC50 value and the average IC50 value is reported with a standard deviation.

[2] = molecular target: S. pyogenes DHFR (Streptococcus pyogenes, UniProt Q9A091); assay: biochemical; format: biochemical; details: IC50 (human)/IC50 (pathogen)
Description: as §1, §2

[3] = molecular target: T2, Human DHFR (Homo sapiens, UniProt P00374); assay: DHFR enzyme inhibition assay (NADPH oxidation, 340 nm); format: biochemical; details: human DHFR; average of at least three measurements; read-out: IC50 (nM) Human
T2 sequence (P00374 1-187): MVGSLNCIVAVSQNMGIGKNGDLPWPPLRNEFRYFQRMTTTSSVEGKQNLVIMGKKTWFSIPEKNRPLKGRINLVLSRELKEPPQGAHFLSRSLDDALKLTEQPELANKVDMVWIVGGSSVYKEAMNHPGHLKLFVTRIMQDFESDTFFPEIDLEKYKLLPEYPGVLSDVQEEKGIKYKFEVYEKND
Description: as §2

[4] = system: MRSA (S.aureus 13709); assay: MIC, broth microdilution with Alamar Blue; format: cell-based, Staphylococcus aureus; details: for Selectivity MRSA: IC50 (MCF10)/MIC (pathogen), both values in µM; for MIC: Staphylococcus aureus, MRSA
Description: (§3) Stock solutions of standard antibiotics and test compounds were made at 50 mM in DMSO. […] For susceptibility testing, 10 µL of glycerol stock was suspended in a 10 mL shake flask culture of chemically defined Isosensitest broth (Oxoid) supplemented with 2% w/v glucose. A sample of the shake flask culture was diluted to 1×10^6 cells/mL in media and added to 96-well test plates (100 µL per well) containing test compounds dispensed in DMSO (2 µL) using serial two-fold dilutions. After an incubation period (30°C) determined from the strain specific doubling time, a 0.03% w/v aqueous solution of resazurin (10 µL) was added and the plates were allowed to incubate; each well was then scored for dye reduction.

[5] = system: Streptococcus pyogenes; assay: MIC, broth microdilution with Alamar Blue; format: cell-based; details: for Selectivity S. pyogenes: IC50 (MCF10)/MIC (pathogen), both values in µM; for MIC: Streptococcus pyogenes
Description: as §3

[6] = system: MCF-10 cells; assay: Mammalian cell toxicity (Alamar Blue); format: cell-based; details: Homo sapiens, MCF10; cytotoxicity, 4 h incubation; read-out: IC50 MCF-10
Description: Adherent cell lines were maintained in Eagle's Minimal Essential Media (Sigma-Aldrich, St. Louis, MO, USA) with 2 mM glutamine and Earle's Balanced Salt Solution (HyClone, Logan, UT, USA) adjusted to contain 1.5 g/L sodium bicarbonate, 0.1 mM non-essential amino acids, 1 mM sodium pyruvate and 10% fetal calf serum. Fetal calf serum used in these assays was lot matched throughout. […] Toxicity assays were conducted between passages 10–20. Target compound toxicity was measured by incubating the test compound with the cells for 4 h, washing the cells and finally treating the cells with Alamar Blue. After 12–24 h, the fluorescence of the reduced dye was measured. Fluorescence intensity as a function of test compound concentration was fit to the Fermi equation, using non-linear least squares regression analysis, to estimate IC50 values.

[7] = system: HepG2 cells; assay: Mammalian cell toxicity (Alamar Blue); format: cell-based; details: Homo sapiens, cytotoxicity, 4 h incubation
Description: Fetal calf serum used in these assays was lot matched throughout. All cultures were maintained under a humidified 5% CO2 atmosphere at 37°C, had media refreshed twice weekly and were subcultured by trypsinization and resuspension at a ratio of 1∶5 each week. Toxicity assays were conducted between passages 10–20. Target compound toxicity was measured by incubating the test compound with the cells for 4 h, washing the cells and finally treating the cells with Alamar Blue. After 12–24 h, the fluorescence of the reduced dye was measured. Fluorescence intensity as a function of test compound concentration was fit to the Fermi equation, using non-linear least squares regression analysis, to estimate IC50 values.

[8] = system: TMP-SMZ-resistant MRSA strain; assay: MIC against clinical isolates of MRSA; format: cell-based; details: Staphylococcus aureus
[9] = system: USA300 CA-MRSA; assay: MIC against clinical isolates of MRSA; format: cell-based, Staphylococcus aureus; details: for MIC: Staphylococcus aureus, read-out: MIC USA300 CA-MRSA
[10] = system: USA100 HA-MRSA; assay: MIC against clinical isolates of MRSA; format: cell-based; details: Staphylococcus aureus
[11] = system: HA-MRSA; assay: MIC against clinical isolates of MRSA; format: cell-based; details: Staphylococcus aureus, read-out: MIC HA-MRSA
[12] = system: hVISA Mu3; assay: MIC against clinical isolates of MRSA; format: cell-based; details: Staphylococcus aureus, read-out: MIC hVISA Mu3
[13] = system: VISA Mu50; assay: MIC against clinical isolates of MRSA; format: cell-based; details: Staphylococcus aureus, read-out: MIC VISA Mu50
[14] = S. aureus DHFR, average of at least three measurements, read-out: IC50 (nM) Sa
[15] = 10% fetal calf serum, read-out: MIC MRSA +FCS
[16] = 10% fetal calf serum, value in parentheses, read-out: MIC MRSA +FCS
[17] = value in parentheses, read-out: MIC MRSA
[18] = 10% FCS, read-out: MIC S. pyogenes +FCS
[19] = 10% FCS, value in parentheses, read-out: MIC S. pyogenes +FCS
[20] = value in parentheses, read-out: MIC S. pyogenes
[21] = clinical isolate, Table 4, read-out: MIC TMP-SMZ^R
[22] = clinical isolate, USA100, read-out: MIC USA100 HA-MRSA
[23] = clinical isolate, first USA100 column, read-out: MIC USA100 HA-MRSA
[24] = clinical isolate, third USA100 column, read-out: MIC USA100 HA-MRSA
[25] = heteroresistant vancomycin intermediate S. aureus

T1 sequence (P0A017 whole entry): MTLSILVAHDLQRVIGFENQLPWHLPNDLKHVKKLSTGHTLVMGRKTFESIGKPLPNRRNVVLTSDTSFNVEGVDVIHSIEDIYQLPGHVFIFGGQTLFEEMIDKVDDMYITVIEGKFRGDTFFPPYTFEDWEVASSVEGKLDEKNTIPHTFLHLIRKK
Chain of S. pyogenes DHFR (Q9A091 entry or part of it): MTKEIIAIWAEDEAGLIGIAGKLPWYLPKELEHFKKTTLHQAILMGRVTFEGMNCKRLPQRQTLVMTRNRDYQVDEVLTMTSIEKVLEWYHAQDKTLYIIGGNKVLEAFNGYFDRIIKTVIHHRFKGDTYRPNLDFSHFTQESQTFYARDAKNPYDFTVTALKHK

| SMILES | Selectivity (h/Sa) [1] | Selectivity (h/Sp) [2] | IC50 [3] | Selectivity MRSA [4] | MIC [4, 17] | MIC ([4]; read-out: MIC MRSA) | Selectivity S. pyogenes [5] | MIC [5, 20] | MIC ([5]; read-out: MIC S. pyogenes) | IC50 [6] | IC50 [7] | MIC [8, 21] | MIC ([9]; clinical isolate, USA300) | MIC ([9]; clinical isolate) | MIC [10, 22] | MIC [10, 23] | MIC [10, 24] | MIC ([11]; clinical isolate) | MIC [12, 25] | MIC [13] | further results |
| --- | --- | --- | --- | --- | --- | --- | --- | --- | --- | --- | --- | --- | --- | --- | --- | --- | --- | --- | --- | --- | --- |
| CCc1nc(N)nc(N)c1C#CCc1cc(-c2ccncc2)ccc1OC [Compound 26] | 16 | 17 | 330 ± 12 nM | 3,391 | 0.064 µM | 0.02 µg/mL | 1,736 | 0.125 µM | 0.04 µg/mL | 217000 nM | 199000 nM | 0.04 µg/mL (≈ 0.111 µM) | 0.08 µg/mL (≈ 0.223 µM) | 0.08 µg/mL (≈ 0.223 µM) | 0.08 µg/mL (≈ 0.223 µM) | 5.3 µg/mL (≈ 14.7 µM) | 0.04 µg/mL (≈ 0.111 µM) | 0.08 µg/mL (≈ 0.223 µM) | 0.04 µg/mL (≈ 0.111 µM) | 0.04 µg/mL (≈ 0.111 µM) | IC50 [1, 14]: 21 ± 1 nM; MIC [4, 15]: 0.09 µg/mL; MIC [4, 16]: 0.25 µM; MIC [5, 18]: 0.09 µg/mL; MIC [5, 19]: 0.25 µM |
| CCc1nc(N)nc(N)c1C#CCc1cc(OC)cc(-c2ccncc2)c1 [Compound 27] | 5 | 2 | 61 ± 5.7 nM | 3,272 | 0.125 µM | 0.04 µg/mL | 3,272 | 0.125 µM | 0.04 µg/mL | 409000 nM | 465000 nM | 0.045 µg/mL (≈ 0.125 µM) | 0.045 µg/mL (≈ 0.125 µM) | 0.045 µg/mL (≈ 0.125 µM) | 0.045 µg/mL (≈ 0.125 µM) | 2.9 µg/mL (≈ 8.07 µM) | 0.045 µg/mL (≈ 0.125 µM) | 0.045 µg/mL (≈ 0.125 µM) | 0.045 µg/mL (≈ 0.125 µM) | 0.18 µg/mL (≈ 0.501 µM) | IC50 [1]: 12 ± 2.4 nM; MIC [4, 15]: 0.09 µg/mL; MIC [4, 16]: 0.25 µM; MIC [5, 18]: 0.09 µg/mL; MIC [5, 19]: 0.25 µM |
| CCc1nc(N)nc(N)c1C#CCc1cccc(-c2ccncc2)c1 [Compound 28] | 26 | 17 | 520 ± 23 nM | 1,900 | 0.25 µM | 0.08 µg/mL | 3,800 | 0.125 µM | 0.04 µg/mL | 475000 nM | > 500000 nM | 0.045 µg/mL (≈ 0.137 µM) | 0.045 µg/mL (≈ 0.137 µM) | 0.045 µg/mL (≈ 0.137 µM) | 0.045 µg/mL (≈ 0.137 µM) | 2.9 µg/mL (≈ 8.8 µM) | 0.045 µg/mL (≈ 0.137 µM) | 0.045 µg/mL (≈ 0.137 µM) | 0.045 µg/mL (≈ 0.137 µM) | 0.09 µg/mL (≈ 0.273 µM) | IC50 [1, 14]: 20 ± 0.5 nM; MIC [4, 15]: 0.16 µg/mL; MIC [4, 16]: 0.5 µM; MIC [5, 18]: 0.09 µg/mL; MIC [5, 19]: 0.25 µM |
| CCc1nc(N)nc(N)c1C#CCc1cccc(-c2cccnc2)c1 [Compound 36] | 9 | 6 | 290 ± 15 nM | >4,000 | 0.125 µM | 0.041 µg/mL | >2,000 | 0.25 µM | 0.08 µg/mL | > 500000 nM | > 500000 nM | 0.045 µg/mL (≈ 0.137 µM) | 0.36 µg/mL (≈ 1.09 µM) | 0.02 µg/mL (≈ 0.0607 µM) | 0.36 µg/mL (≈ 1.09 µM) | 5.76 µg/mL (≈ 17.5 µM) | 0.09 µg/mL (≈ 0.273 µM) | 0.36 µg/mL (≈ 1.09 µM) | 0.36 µg/mL (≈ 1.09 µM) | 0.72 µg/mL (≈ 2.19 µM) | IC50 [1, 14]: 33 ± 0.5 nM |
| CN[C@H](CC(C)C)C(=O)N[C@H]1C(=O)N[C@@H](CC(N)=O)C(=O)N[C@H]2C(=O)N[C@H]3C(=O)N[C@H](C(=O)N[C@H](C(=O)O)c4cc(O)cc(O)c4-c4cc3ccc4O)[C@H](O)c3ccc(c(Cl)c3)Oc3cc2cc(c3O[C@@H]2O[C@H](CO)[C@@H](O)[C@H](O)[C@H]2O[C@H]2C[C@](C)(N)[C@H](O)[C@H](C)O2)Oc2ccc(cc2Cl)[C@H]1O [Vancomycin, reference compound] | – | – | – | – | – | – | – | – | – | – | – | – | – | – | – | – | – | – | – | 8 µg/mL (≈ 5.52 µM) | MIC ([8]; read-out: MIC TMP-SMZ^R): 2 µg/mL (≈ 1.38 µM); MIC [9]: 1 µg/mL (≈ 0.69 µM); MIC USA300 CA-MRSA ([9]; clinical isolate, USA300): 1 µg/mL (≈ 0.69 µM); MIC ([10]; read-out: MIC USA100 HA-MRSA, clinical isolate, USA100): 1 µg/mL (≈ 0.69 µM); MIC ([10]; read-out: MIC USA100 HA-MRSA, clinical isolate, first USA100 column): 0.5 µg/mL (≈ 0.345 µM); MIC ([10]; read-out: MIC USA100 HA-MRSA, clinical isolate, third USA100 column): 1 µg/mL (≈ 0.69 µM); MIC [11]: 1 µg/mL (≈ 0.69 µM); MIC [12]: 3 µg/mL (≈ 2.07 µM) |
